The text below walks through data of PubChem BioAssay (NCI).

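The compound was tested at five concentrations on cells cultured in 96-well plates, with a 48-hour exposure period. At the TGI there is no net growth.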

Some test systems named below: RXF 393 renal; MDA-N; OVCAR-3 ovarian; KM12 colon; HT29 colon; HCT-116 colon; SW-620 colon; LOX IMVI melanoma; TK-10 renal; NCI-H522 lung; 786-0 renal; SNB-19 CNS; M14 melanoma; UACC-62 melanoma; DU-145 prostate; UO-31 renal; MDA-MB-231 breast; HOP-62 NSCLC; NCI-H226 lung.
What all share (assay): NCI tumour cell line growth inhibition, 48 h

With `CCOC(=O)N/N=C(\Cc1ccc([N+](=O)[O-])cc1)OCC`, the TGI with RXF 393 renal, in the experiment on MDA-N, with OVCAR-3 ovarian, in the experiment on KM12 colon, in the experiment on HT29 colon and in the experiment on HCT-116 colon was > 100 µM throughout. Besides, the TGI in the experiment with SW-620 colon, in the experiment on LOX IMVI melanoma, with TK-10 renal, in the experiment with NCI-H522 lung, with 786-0 renal and in the experiment on SNB-19 CNS was > 100 µM throughout. Besides, the TGI with M14 melanoma, with UACC-62 melanoma, with DU-145 prostate, with UO-31 renal, in the experiment with MDA-MB-231 breast and in the experiment with HOP-62 NSCLC was > 100 µM in each case.

In the case of `CC1OC(OC2C(CO)OC(O[C@H]3CC[C@@]4(C)C(=CC[C@H]5[C@@H]6C[C@@H]7O[C@](O)(CC[C@H](C)COC8OC(CO)C(O)C(O)C8O)[C@@H](C)[C@@H]7[C@@]6(C)CC[C@@H]54)C3)C(OC3OC(C)C(O)C(O)C3O)C2O)C(O)C(O)C1O` (some centres undefined), the TGI was 98.7 µM with RXF 393 renal; 11.3 µM in the experiment with MDA-N; > 29.3 µM in the experiment on OVCAR-3 ovarian; 5.69 µM in the experiment on KM12 colon; > 100 µM in the experiment with HT29 colon; > 32.1 µM in the experiment on HCT-116 colon. Moreover, the TGI in the experiment with SW-620 colon was 4.02 µM; in the experiment with LOX IMVI melanoma, 4.9 µM; in the experiment on TK-10 renal, > 100 µM; in the experiment on NCI-H522 lung it was 7.53 µM; in the experiment with 786-0 renal it was 5.72 µM; with NCI-H226 lung, 85 µM. Besides, the TGI in the experiment on SNB-19 CNS was 8.65 µM; with UACC-62 melanoma it was > 50.4 µM; in the experiment on DU-145 prostate, 5.92 µM; in the experiment with UO-31 renal, 13.3 µM; in the experiment on MDA-MB-231 breast, 30.8 µM; in the experiment with HOP-62 NSCLC, 6.04 µM.

In the case of `CC1OC(OC2C(CO)OC(O[C@H]3CC[C@@]4(C)C(=CC[C@H]5[C@@H]6C[C@@H]7O[C@](O)(CC[C@H](CO)COC8OC(CO)C(O)C(O)C8O)[C@@H](C)[C@@H]7[C@@]6(C)CC[C@@H]54)C3)C(OC3OC(C)C(O)C(O)C3O)C2O)C(O)C(O)C1O` (some centres undefined), the TGI in the experiment with RXF 393 renal, in the experiment on MDA-N, in the experiment on OVCAR-3 ovarian, in the experiment on KM12 colon, in the experiment on HT29 colon and with HCT-116 colon was > 100 µM each time. The TGI in the experiment with SW-620 colon, in the experiment on LOX IMVI melanoma, in the experiment with TK-10 renal, in the experiment on NCI-H522 lung, with 786-0 renal and in the experiment with SNB-19 CNS was > 100 µM in each case. Also, the TGI in the experiment with M14 melanoma, in the experiment on UACC-62 melanoma, in the experiment with DU-145 prostate, in the experiment on UO-31 renal, with MDA-MB-231 breast and with HOP-62 NSCLC was > 100 µM in each case.

`Cc1ccc([N+](=O)[O-])cc1S(=O)(=O)Nc1ccc(C2=NN(C(=O)c3ccccc3)C(c3cccs3)C2)cc1` (centres undefined): the TGI is 56.8 µM in the experiment with RXF 393 renal; 77.4 µM in the experiment on MDA-N; 45.5 µM in the experiment with OVCAR-3 ovarian; > 100 µM in the experiment on KM12 colon; > 100 µM with HT29 colon; > 100 µM in the experiment with HCT-116 colon. In addition, the TGI in the experiment on SW-620 colon was > 100 µM; in the experiment with LOX IMVI melanoma, > 100 µM; with TK-10 renal, 75.1 µM; with NCI-H522 lung, 70.8 µM; in the experiment with 786-0 renal it was 45.2 µM; in the experiment on NCI-H226 lung it was 88.3 µM. Besides, the TGI in the experiment with SNB-19 CNS was > 100 µM; in the experiment with M14 melanoma it was > 100 µM; in the experiment with DU-145 prostate, > 100 µM; in the experiment on UO-31 renal, > 100 µM; with MDA-MB-231 breast, 44 µM; with HOP-62 NSCLC it was 78.3 µM.

Consider `NCCCCN(CCCN)Cc1ccc2ccccc2c1`, for which the TGI was > 100 µM in the experiment on RXF 393 renal; 51.7 µM in the experiment with MDA-N; > 100 µM with KM12 colon; > 100 µM in the experiment with HT29 colon; > 100 µM in the experiment on HCT-116 colon; > 100 µM in the experiment on SW-620 colon. The TGI in the experiment on LOX IMVI melanoma was > 100 µM; in the experiment with TK-10 renal, > 100 µM; with NCI-H522 lung, 37.6 µM; with 786-0 renal, > 100 µM; with NCI-H226 lung, > 100 µM; with SNB-19 CNS it was 55 µM. Moreover, the TGI with M14 melanoma is > 100 µM; in the experiment with UACC-62 melanoma it was > 100 µM; with DU-145 prostate, > 100 µM; in the experiment with UO-31 renal it was 71 µM; in the experiment with MDA-MB-231 breast, > 100 µM.

Turning to `CC1=CC(=O)[C@@H](O)[C@]2(C)[C@H]3[C@@]4(O)OC[C@@]35[C@@H](C[C@@H]12)OC(=O)C(OC(=O)CC1=CCCC1)[C@H]5[C@@H](C)[C@H]4O` (some centres undefined), the TGI is 0.234 µM in the experiment with RXF 393 renal; 0.163 µM with MDA-N; 0.166 µM in the experiment with KM12 colon; 0.203 µM with HT29 colon; 1.42 µM in the experiment on HCT-116 colon; > 29.5 µM in the experiment on SW-620 colon. The TGI in the experiment on LOX IMVI melanoma stood at 0.0653 µM; with TK-10 renal, 0.948 µM; with NCI-H522 lung it was 0.0733 µM; with 786-0 renal, 0.311 µM; in the experiment with NCI-H226 lung, 0.0632 µM; in the experiment on M14 melanoma it was 0.103 µM. The TGI in the experiment with UACC-62 melanoma came out at 0.21 µM; in the experiment on DU-145 prostate, 4.66 µM; in the experiment on UO-31 renal it was 0.449 µM; in the experiment with MDA-MB-231 breast, 0.372 µM; with HOP-62 NSCLC, 0.108 µM.

For `CSc1ccc(-c2cc(-c3nc4ccccc4[nH]3)nc(N)c2C#N)cc1`, the TGI is 24.7 µM with RXF 393 renal; 66.1 µM in the experiment with MDA-N; 43.1 µM in the experiment with OVCAR-3 ovarian; 71.2 µM in the experiment with KM12 colon; 56.7 µM in the experiment on HT29 colon; 42.7 µM in the experiment on HCT-116 colon. The TGI in the experiment on SW-620 colon is > 100 µM; with LOX IMVI melanoma it was 44 µM; in the experiment on TK-10 renal, 99.7 µM; with NCI-H522 lung, 46.8 µM; with 786-0 renal it was > 100 µM; in the experiment with NCI-H226 lung, 79.5 µM. Also, the TGI in the experiment on SNB-19 CNS is > 100 µM; with M14 melanoma it was 33.8 µM; with UACC-62 melanoma, 26 µM; in the experiment with DU-145 prostate, 66.9 µM; with MDA-MB-231 breast it was 36.1 µM; in the experiment with HOP-62 NSCLC, 42.1 µM.
